According to publication PMC9853848 (Journal of the American Chemical Society, 2022):
Read-outs that look alike come from different tables or passages of the source.

What was measured:
[1] = system: P91; settings: P91-R2; 25 °C, pH 8.0; covalent intermediate
[2] = system: T1, P91; format: biochemical, uncultured bacterium; settings: read-out: KM (μM) ^b
T1 construct: full-length, N-terminal His6-tag, purified recombinant (E. coli); Cys118-His199-Asp167 triad

[3] = target: T1, P91; format: biochemical, uncultured bacterium

## CCOP(=O)(OCC)Oc1ccc([N+](=O)[O-])cc1 [compound 2, paraoxon-ethyl]
[1]
  Km: 290 µM

## CCOP(=O)(OCC)Oc1ccc2c(c1)Oc1cc(OP(=O)(OCC)OCC)ccc1C21OC(=O)c2ccccc21 [compound 1, FDDEP]
[2]
  Km: 46 ± 9.7 µM
[3]
  Ki: 290 ± 89 µM
